Test results as given in US8389698B2, “Tanaproget derivatives, metabolites, and uses thereof” (Wyeth LLC, priority 2004, dated 2013).

Assays:
[1] = system: alkaline phosphatase activity in T47D cells; experiment: Alkaline phosphatase activity in T47D cells; type: cell-based
Procedure: Tanaproget glucuronides are a prodrug of tanaproget, a first-in-class non-steroidal progesterone receptor agonist for use primarily in contraception. The effect of tanaproget glucuronides on alkaline phosphase activity in T47D cells is analyzed as follows.
Culture medium: DMEM:F12 (1:1) (GIBCO, BRL) supplemented with 5% (v/v) charcoal stripped fetal bovine serum (not heat-inactivated), 100 U/mL penicillin, 100 μg/mL streptomycin, and 2 mM GlutaMax (GIBCO, BRL).
Alkaline phosphatase assay buffer: I. 0.1M Tris-HCl, pH 9.8, containing 0.2% Triton X-100, 0.1M Tris-HCl, pH 9.8, containing 4 mM p-nitrophenyl phosphate (Sigma).
Frozen T47D cells are thawed in a 37° C. water bath and diluted to 280,000 cells/mL in culture medium. To each well in a 96-well plate (Falcon, Becton Dickinson Labware), 180 μl of diluted cell suspension is added.
Twenty μl of reference or test compounds diluted in the culture medium is then added to each well. The cells are incubated at 37° C. in a 5% CO2 humidified atmosphere for 24 hours. For high throughput screening, one concentration of each compound will be tested at 0.3 μg/mL. […]
For reference and test compounds, a dose response curve is generated for dose vs. the rate of enzyme reaction (slope). […] EC50 values are calculated from the retransformed values. […]

[2] = system: Glusulase (glucuronidase); experiment: Enzymatic hydrolysis of tanaproget glucuronide conjugate in pooled urine by Glusulase; type: in vitro ADME
Procedure: In order to confirm that that the tanaproget glucuronide derivative is a prodrug when delivered to patients, the ability of the glucuronide conjugate to be enzymatically cleaved by a glucuronidase which is native to the gastrointestinal tract in humans was used in the following assay.
Pooled urine samples (4-8 hr) from healthy women were hydrolyzed by Glusulase®. Aliquots (1 mL) of pooled urine were adjusted to pH 5 with 0.5 mL of 0.6 M sodium acetate buffer. The diluted urine was mixed with Glusulase® (9,000 units/mL, 100 μL) and incubated at 37° C. for 1 hr with gentle shaking. The reaction was stopped by the addition of 2 mL of acetone and the precipitate was removed by centrifugation. The supernatant was dried under nitrogen in a TurboVap™ (Caliper Life Sciences, Hopkinton, Mass.).

[3] = Metabolite identification in liver microsomes; type: in vitro ADME; conditions: male and female rat, dog, and human liver microsomes
Procedure: (§1) The glucuronide of tanaproget was prepared in male rat liver microsomes, and the structure was identified as a S-glucuronide conjugate by liquid chromatography (LC)/mass spectrometry (MS) and nuclear magnetic resonance (NMR) spectroscopy. […] This S-glucuronide can also be synthetically prepared simultaneously with a N-glucuronide. The two synthetic glucuronides could be separated by HPLC and their structures were all characterized by LC/MS and NMR spectroscopy. In the following scheme, the NSP-989 terminology is used in the place of tanaproget.
Incubations (100 mL) were performed with tanaproget (40 μM), UDPGA (5 mM), magnesium chloride (10 mM), and male rat liver microsomes (1.5 mg/mL), in 0.1 M potassium phosphate buffer, pH 7.4 at 37° C. The samples were pre-incubated for 1 minute at 37° C., and the reactions were initiated by the addition of UDPGA. The sample was cooled using an ice bath to stop the reaction after 3 hours. Unreacted tanaproget was removed from the samples by two extractions with diethyl ether (200 mL×2).

[4] = Drug related components in plasma; type: in vivo; conditions: rat, dog, and human plasma
Procedure: as §1

EC50 ([1]; Homo sapiens, 24 hours treatment): 0.1 nM
abundance as metabolite of tanaproget in liver microsomes [3]: major metabolite
abundance as drug related component in plasma [4]: major drug related component
Structure (SMILES): Cn1c(C#N)ccc1-c1ccc2c(c1)C(C)(C)OC(SC1OC(C(=O)O)C(O)C(O)C1O)=N2 [Tanaproget S-glucuronide, S-(β)-D-glucuronide of tanaproget]
efficacy as compared to progesterone ([1]; alkaline phosphatase, relative to progesterone): 60%
conversion of glucuronide into tanaproget by Glusulase ([2]; pooled urine (4-8 hr) from healthy women, pH 5, Glusulase 9,000 units/mL, 37° C., 1 hr, HPLC and LC/MS): confirmed the conversion of glucuronide into parent drug tanaproget
conversion of glucuronide into tanaproget in control incubations ([2]; same conditions without Glusulase, or with Glusulase and 10 mM saccharolactone (β-glucuronidase inhibitor)): no conversion of glucuronide conjugate into tanaproget was observed
